SMILES | melting point [°C]
CCc1ccc(F)c(N2CCN(CC[C@H]3CC[C@H](NC(=O)CCCC#N)CC3)CC2)c1 [Example 674, 4-Cyano-N-(4-{2-[4-(5-ethyl-2-fluorophenyl)piperazin-1-yl]ethyl}cyclohexyl)butanamide] | 153
N#CCCCC(=O)N[C@H]1CC[C@H](CCN2CCN(c3cccc(C(F)(F)F)c3)CC2)CC1 [Example 161, 4-Cyano-N-(4-{2-[4-(3-trifluoromethylphenyl)piperazin-1-yl]ethyl}cyclohexyl)butanamide] | 149
CCc1ccc(F)c(N2CCN(CC[C@H]3CC[C@H](NC(=O)CC#N)CC3)CC2)c1 [Example 673, 2-Cyano-N-(4-{2-[4-(5-ethyl-2-fluorophenyl)piperazin-1-yl]ethyl}cyclohexyl)acetamide] | 180
CC(=O)CN1CCC(CCN2CCN(c3cccc(C(=O)C(C)C)c3)CC2)CC1.Cl.Cl | 250
N#CCCCC(=O)N[C@H]1CC[C@@H](CCN2CCN(c3cccc(C(F)(F)F)c3F)CC2)CC1 [Example 366, 4-Cyano-N-(4-{2-[4-(2-fluoro-3-trifluoromethylphenyl)piperazin-1-yl]ethyl}cyclohexyl)butanamide] | 95
Cc1ccc(Cl)cc1N1CCN(CC[C@H]2CC[C@H](NC(=O)CCC#N)CC2)CC1 [Example 257, N-(4-{2-[4-(5-Chloro-2-methylphenyl)piperazin-1-yl]ethyl}cyclohexyl)-3-cyanopropanamide] | 133 to 134
CC(=O)CN1CCC(CCN2CC=C(c3cccc4c3CCC4)CC2)CC1.Cl.Cl | 291
Cc1c(F)cccc1N1CCN(CC[C@H]2CC[C@H](NC(=O)CC#N)CC2)CC1 [Example 313, 2-Cyano-N-(4-{2-[4-(3-fluoro-2-methylphenyl)piperazin-1-yl]ethyl}cyclohexyl)acetamide] | 174
N#CCCCC(=O)N[C@H]1CC[C@H](CCN2CCN(c3ccc4c(c3)CCCC4)CC2)CC1 [Example 510, 4-Cyano-N-(4-{2-[4-(5,6,7,8-tetrahydronaphthalen-2-yl)piperazin-1-yl]ethyl}cyclohexyl)butanamide] | 170
Cl.N#CCCCC(=O)N1CCC(CCN2CCN(c3cccc4c3CCC4)CC2)CC1 | 210
O=C(CCC(F)(F)F)N[C@H]1CC[C@H](CCN2CCN(c3cc(C(F)(F)F)ccc3F)CC2)CC1 [Example 736, 4,4,4-Trifluoro-N-(4-{2-[4-(2-fluoro-5-trifluoromethyl-phenyl)piperazin-1-yl]ethyl}cyclohexyl)butanamide] | 182
CCOCC(=O)N[C@H]1CC[C@H](CCN2CCN(c3ccccc3Cl)CC2)CC1 [Example 132, N-(4-{2-[4-(2-Chlorophenyl)-piperazin-1-yl]ethyl}cyclohexyl)-2-ethoxyacetamide] | 108
COCCCC(=O)N[C@H]1CC[C@H](CCN2CCN(c3cc(F)c(F)c(F)c3F)CC2)CC1 [Example 93, 4-Methoxy-N-(4-{2-[4-(2,3,4,5-tetrafluorophenyl)piperazin-1-yl]ethyl}cyclohexyl)butyramide] | 201
Cc1ccccc1N1CCN(CC[C@H]2CC[C@H](NC(=O)C3=CCCC3)CC2)CC1 [Example 556, Cyclopent-1-enecarboxylic acid {4-[2-(4-o-tolylpiperazin-1-yl)ethyl]cyclohexyl} amide] | 181
COc1ccc(N2CCN(CC[C@H]3CC[C@H](NC(=O)CCCC#N)CC3)CC2)cc1 [Example 582, 4-Cyano-N-(4-{2-[4-(4-methoxyphenyl)piperazin-1-yl]ethyl}cyclohexyl)butanamide] | 200
O=C(CC(F)(F)F)N[C@H]1CC[C@H](CCN2CCN(c3ccccc3)CC2)CC1 [Example 188, 3,3,3-Trifluoro-N-{4-[2-(4-phenylpiperazin-1-yl)ethyl]cyclohexyl}propanamide] | 185
CS(=O)(=O)CC(=O)N[C@H]1CC[C@H](CCN2CCN(c3ccc(Cl)cc3)CC2)CC1 [Example 427, N-(4-{2-[4-(4-Chlorophenyl)-piperazin-1-yl]ethyl}cyclohexyl)-2-methanesulfonylacetamide] | 214
NC(=O)CCC(=O)N[C@H]1CC[C@H](CCN2CCN(c3ccccc3F)CC2)CC1 [Example 186, N-(4-{2-[4-(2-Fluorophenyl)piperazin-1-yl]ethyl}cyclohexyl)succinamide] | 255
O=C(COc1ccccc1)N[C@H]1CC[C@H](CCN2CCN(c3ccccc3F)CC2)CC1 [Example 88, N-(4-{2-[4-(2-Fluorophenyl)-piperazin-1-yl]ethyl}cyclohexyl)-2-phenoxyacetamide] | 172
O=C(C=C1CCC(CCN2CCN(c3ccccc3F)CC2)CC1)N1CCCC1 (stereo not shown) [Example 301, 2-(4-{2-[4-(2-Fluorophenyl)-piperazin-1-yl]ethyl}cyclohexylidene)-1-pyrrolidin-1-ylethanone] | 109 to 110
CCOCC(=O)N[C@H]1CC[C@H](CCN2CCN(c3cccc4c3CCCC4)CC2)CC1 [Example 117, 2-Ethoxy-N-(4-{2-[4-(5,6,7,8-tetrahydronaphthalen-1-yl)piperazin-1-yl]ethyl}-cyclohexyl)acetamide] | 91
N#CCC(=O)N[C@H]1CC[C@H](CCN2CCN(c3cccc4cccnc34)CC2)CC1 [Example 237, 2-Cyano-N-{4-[2-(4-quinolin-8-ylpiperazin-1-yl)ethyl]-cyclohexyl}acetamide] | 225

SMILES | melting point [°C]
CC(=O)CN1CCC(CCN2CCN(c3cccc4c3CCC4)CC2)CC1.Cl.Cl | 295
N#CCC(=O)N[C@H]1CC[C@H](CCN2CCN(c3cccc(C(F)F)c3)CC2)CC1 [Example 354, 2-Cyano-N-(4-{2-[4-(3-difluoromethylphenyl)piperazin-1-yl]ethyl}cyclohexyl)acetamide] | 185
CC(=O)CN1CCC(CCN2CCN(c3cc(F)c(F)c(F)c3)CC2)CC1 [Example 697, 1-(4-{2-[4-(3,4,5-Trifluoro-phenyl)-piperazin-1-yl]ethyl}piperidin-1-yl)propan-2-one] | 86
N#CCCCCC(=O)N[C@H]1CC[C@H](CCN2CCN(c3cc(C(F)(F)F)ccc3F)CC2)CC1 [Example 731] | 158
Cc1cc(F)cc(N2CCN(CC[C@H]3CC[C@H](NC(=O)CCCC#N)CC3)CC2)c1 [Example 726, 4-Cyano-N-(4-{2-[4-(3-fluoro-5-methylphenyl)piperazin-1-yl]ethyl}cyclohexyl)butanamide] | 150
CC(=O)CN1CCC(CCN2CCN(c3ccc(C)c(C#N)c3)CC2)CC1 [Example 464, 2-Methyl-5-(4-{2-[1-(2-oxopropyl)piperidin-4-yl]ethyl}piperazin-1-yl)benzonitrile] | 107
Cc1ccc(N2CCN(CC[C@H]3CC[C@H](NC(=O)C4=CCCC4)CC3)CC2)cc1 [Example 475, Cyclopent-1-enecarboxylic acid {4-[2-(4-p-tolylpiperazin-1-yl)ethyl]cyclohexyl} amide] | 227
CCOCC(=O)N[C@H]1CC[C@H](CCN2CCN(c3cc(C(C)(C)C)nc(C(C)(C)C)n3)CC2)CC1 [Example 121, N-(4-{2-[4-(2,6-Di-tert-butylpyrimidin-4-yl)piperazin-1-yl]ethyl}cyclohexyl)-2-ethoxyacetamide] | 104
CCC(O)c1cccc(N2CCN(CCC3CCN(CC(C)=O)CC3)CC2)c1 (stereo not shown) [Example 607, 1-[4-(2-{4-[3-(1-Hydroxypropyl)phenyl]piperazin-1-yl}ethyl)piperidin-1-yl]propan-2-one] | 83
N#CCCCC(=O)N[C@H]1CC[C@H](CCN2CCN(c3cc(Cl)ccc3F)CC2)CC1 [Example 414, N-(4-{2-[4-(5-Chloro-2-fluorophenyl)piperazin-1-yl]ethyl}cyclohexyl)-4-cyanobutanamide] | 165
NC(=O)CCC(=O)N[C@H]1CC[C@H](CCN2CCN(c3cc(C(F)(F)F)ccc3F)CC2)CC1 [Example 631, N-(4-{2-[4-(2-Fluoro-5-trifluoromethylphenyl)piperazin-1-yl]ethyl}cyclohexyl)succinamide] | 238
N#CCCCC(=O)N[C@H]1CC[C@H](CCN2CCN(c3ccc(F)c(Cl)c3F)CC2)CC1 [Example 552, N-(4-{2-[4-(3-Chloro-2,4-difluorophenyl)piperazin-1-yl]ethyl}cyclohexyl)-4-cyanobutanamide] | 192
CCOCC(=O)N[C@H]1CC[C@H](CCN2CCN(c3cccc(CC)c3)CC2)CC1 [Example 563, 2-Ethoxy-N-(4-{2-[4-(3-ethylphenyl)piperazin-1-yl]ethyl}cyclohexyl)acetamide] | 100
N#CCC(=O)N[C@H]1CC[C@H](CCN2CCN(c3cccc4c3CCCC4)CC2)CC1 [Example 116, 2-Cyano-N-(4-{2-[4-(5,6,7,8-tetrahydronaphthalen-1-yl)piperazin-1-yl]ethyl}cyclohexyl)acetamide] | 175
CCOC(=O)CN1CCC(CCN2CCN(c3cccc(C)c3C)CC2)CC1 [Example 533, (4-{2-[4-(2,3-Dimethylphenyl)piperazin-1-yl]ethyl}piperidin-1-yl)acetic acid ethyl ester] | 82
Cl.N#CCC(=O)N[C@H]1CC[C@H](CCN2CCN(c3ccccc3C(F)(F)F)CC2)CC1 | 278
CCOCC(=O)N[C@H]1CC[C@H](CCN2CCN(c3ccc(F)cc3F)CC2)CC1 [Example 503, N-(4-{2-[4-(2,4-Difluorophenyl)piperazin-1-yl]ethyl}cyclohexyl)-2-ethoxyacetamide] | 130
CCc1cccc(C2=CCN(CC[C@H]3CC[C@H](NC(=O)CCCC#N)CC3)CC2)c1 | 147
CCc1ccc(N2CCN(CC[C@H]3CC[C@H](NC(=O)CC#N)CC3)CC2)c(CC)c1 [Example 255, 2-Cyano-N-(4-{2-[4-(2,4-diethylphenyl)piperazin-1-yl]ethyl}cyclohexyl)acetamide] | 183
Cc1cccc(N2CCN(CC[C@H]3CC[C@H](NC(=O)CCCC#N)CC3)CC2)c1C [Example 429, 4-Cyano-N-(4-{2-[4-(2,3-dimethylphenyl)piperazin-1-yl]ethyl}cyclohexyl)butanamide] | 162
CCc1cccc(N2CCN(CCC3CCN(CC(C)=O)CC3)CC2)c1.Cl.Cl | 266

Reference: patent US8802678B2, “Carbonylated (aza) cyclohexanes as dopamine D3 receptor ligands” (Bioprojet, priority 2006, dated 2014)
